# Assay results published in US20210268450A1, “COMPOSITION USEFUL FOR PRODUCTION OF ACIDIC GAS SEPARATION MEMBRANE” (SUMITOMO CHEMICAL COMPANY, LIMITED, priority 2018, published 2021).
# Test: acid dissociation constant in a 25° C. aqueous solution (titration method)
# Type: physicochemical
# Conditions: for acid dissociation constant in a 25° C. aqueous solution 1: first constant; for acid dissociation constant 2: second constant
# Description: This acid dissociation constant is a value as measured by a known titration method based on the definition of Bronsted (Shinpan Bunseki Kagaku Jikken, Nihon Bunseki Kagakukai Hokkaido Shibu ed., pp. 219 to 237).
SMILES,acid dissociation constant in a 25° C. aqueous solution 1,acid dissociation constant 2,acid dissociation constant 3 (third constant),acid dissociation constant in a 25° C. aqueous solution (single constant)
"Oc1cccc(O)c1 [Weakly acidic organic compound 1, resorcinol]",9.3,9.8,–,–
"Oc1cc(O)cc(O)c1 [Weakly acidic organic compound 2, phloroglucinol]",8.0,9.2,14.0,–
"CS(=O)(=O)Nc1ccccc1 [Weakly acidic organic compound 4, N-phenylmethanesulfonamide]",–,–,–,12.9
"Oc1cccc(O)c1O [Weakly acidic organic compound 5, pyrogallol]",9.0,11.6,–,–
"Oc1ccccc1O [Weakly acidic organic compound 6, catechol]",9.1,12.1,–,–
